According to patent US10221163B2 (priority 2015, dated 2019):
Where two headings read alike, the source gives them in different places.

Assays:
[1] = test system: Pseudomonas aeruginosa efflux+ (MB9798), IMP-1; assay type: cell-based; settings: concentration restoring susceptibility to imipenem at 2 μg/mL in the presence of a class A, C, D serine β-lactamase inhibitor closely related to relebactam
How it was run: (§1)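 Steps: add fixed imipenem and/or ceftazidime (usually CLSI breakpoint) and fixed AmpC-directed class A/C inhibitor to microbroth MIC wells; titrate MBL inhibitor; record concentration regaining susceptibility for each PAO1-derived strain; divide efflux+ by efflux− value.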

[2] = test system: Pseudomonas aeruginosa efflux− (MB9799), IMP-1; assay type: cell-based; settings: concentration restoring susceptibility to imipenem at 2 μg/mL in the presence of a class A, C, D serine β-lactamase inhibitor closely related to relebactam
How it was run: as §1

[3] = test system: Pseudomonas aeruginosa MB9798 vs MB9799; settings: ratio MITC95 PA_9798/MITC95 PA_9799
How it was run: as §1

[4] = molecular target: IMP-1 (Serratia marcescens, UniProt P52699); assay: biochemical; assay type: biochemical; settings: CCF2-FA substrate, 2 pM enzyme, 2 hours at 25° C.
Sequence of IMP-1 (P52699 whole entry, looked up, species assumed): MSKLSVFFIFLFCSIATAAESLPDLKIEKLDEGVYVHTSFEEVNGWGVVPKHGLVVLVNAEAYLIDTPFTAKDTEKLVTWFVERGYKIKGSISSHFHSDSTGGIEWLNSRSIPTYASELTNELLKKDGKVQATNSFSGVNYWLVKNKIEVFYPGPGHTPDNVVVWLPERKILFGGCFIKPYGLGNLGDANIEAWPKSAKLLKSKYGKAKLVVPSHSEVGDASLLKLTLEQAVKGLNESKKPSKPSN
How it was run: (§2)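 Test compound, enzyme and the FRET cephalosporin substrate CCF2-FA are incubated together for 2 hours at 25° C. Cleavage is followed by fluorescence, and IC50 values are derived from semi-logarithmic inhibition curves fitted with a 4-parameter model.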

[5] = molecular target: NDM-1 (Klebsiella pneumoniae, UniProt C7C422); assay: biochemical; assay type: biochemical; settings: fluorescence assay, CCF2-FA substrate, 1 pM enzyme, 2 hours at 25° C.; read-out: NDM-1 IC50
Sequence of NDM-1 (C7C422 whole entry, looked up, species assumed): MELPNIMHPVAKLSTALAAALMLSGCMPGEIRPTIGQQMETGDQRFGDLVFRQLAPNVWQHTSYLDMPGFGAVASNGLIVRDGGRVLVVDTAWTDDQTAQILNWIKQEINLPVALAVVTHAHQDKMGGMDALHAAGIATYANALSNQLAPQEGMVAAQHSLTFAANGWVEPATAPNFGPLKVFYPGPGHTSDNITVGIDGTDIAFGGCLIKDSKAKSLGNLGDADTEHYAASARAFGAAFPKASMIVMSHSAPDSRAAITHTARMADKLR
How it was run: as §2

[6] = test system: Escherichia coli expressing NDM-1 (CLB30005, CLB30016); assay type: cell-based; settings: with imipenem 1 μg/ml; 95% inhibition of bacterial growth
How it was run: (§3)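 Colonies grown overnight on blood agar at 35° C were suspended in saline, diluted 1:100 into 1.1×CAMHB and dispensed. Imipenem was added to 1 μg/ml, then test compound. After 22 hours to 24 hours at 35° C, absorbance was recorded.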

[7] = test system: Klebsiella pneumoniae expressing VIM-1 (IHMA599644); assay type: cell-based; settings: with imipenem 1 μg/ml; 95% inhibition of bacterial growth
How it was run: as §3

[8] = test system: Serratia marcescens expressing IMP-1 (CL5741); assay type: cell-based; settings: with imipenem 1 μg/ml; 95% inhibition of bacterial growth
How it was run: as §3

[9] = molecular target: VIM-1 (Pseudomonas aeruginosa (strain ATCC 15692 / DSM 22644 / CIP 104116 / JCM 14847 / LMG 12228 / 1C / PRS 101 / PAO1), UniProt A0A0F7KYQ8); assay: biochemical; settings: CCF2-FA substrate, 30 pM enzyme, 2 hours at 25° C.
How it was run: as §2

[10] = fluorescence assay, read-out: IMP-1 IC50
[11] = fluorescence assay, read-out: VIM-1 IC50

| SMILES | P. aeruginosa expressing IMP-1, efflux + (MB9798) MITC95 [1] [µM] | P. aeruginosa expressing IMP-1, efflux − (MB9799) MITC95 [2] [µM] | Efflux ratio [3] | IC50 ([4]; IMP-1 IC50, fluorescence assay) [nM] | IC50 [5] [nM] | Escherichia coli expressing NDM-1 (CLB30016) MITC95 [6] [µM] | Klebsiella pneumoniae expressing VIM-1 (IHMA599644) MITC95 [7] [µM] | Serratia marcescens expressing IMP-1 (CL5741) MITC95 [8] [µM] | IC50 ([9]; VIM-1 IC50, fluorescence assay) [nM] | IC50 [4, 10] [nM] | IC50 [9, 11] [nM] |
| --- | --- | --- | --- | --- | --- | --- | --- | --- | --- | --- | --- |
| Nc1nc2c(-c3ccc(S(=O)(=O)NC[C@@H]4CCNC4)c(S(N)(=O)=O)c3-c3nnn[nH]3)cccc2s1 [Example 75, 4-(2-amino-1,3-benzothiazol-4-yl)-N^1-[(3R)-pyrrolidin-3-ylmethyl]-3-(1H-tetrazol-5-yl)benzene-1,2-disulfonamide] | 0.7813 | 0.7813 | 1.00 | 0.158 | 0.0207 | 1.563 | 3.125 | 1.563 | 0.115 |  |  |
| CN1CC[C@@H](CNS(=O)(=O)c2ccc(-c3cccc4sc(N)nc34)c(-c3nnn[nH]3)c2S(N)(=O)=O)C1 [Example 76, 4-(2-amino-1,3-benzothiazol-4-yl)-N^1-{[(3R)-1-methylpyrrolidin-3-yl]methyl}-3-(1H-tetrazol-5-yl)benzene-1,2-disulfonamide] | 0.7813 | 1.563 | 0.50 |  | 0.0285 | 3.125 | 3.125 | 1.563 | 0.129 | 0.195 |  |
| CN1CC[C@H](CNS(=O)(=O)c2ccc(-c3cccc4sc(N)nc34)c(-c3nnn[nH]3)c2S(N)(=O)=O)C1 [Example 77, 4-(2-amino-1,3-benzothiazol-4-yl)-N1-{[(3S)-1-methylpyrrolidin-3-yl]methyl}-3-(1H-tetrazol-5-yl)benzene-1,2-disulfonamide] | 0.7813 | 1.563 | 0.50 |  | 0.0341 | 3.125 | 6.25 | 1.563 | 0.133 | 0.166 |  |
| Nc1nc2c(-c3ccc(S(=O)(=O)N[C@H]4CN[C@H](CO)C4)c(S(N)(=O)=O)c3-c3nnn[nH]3)cccc2s1 [Example 78, 4-(2-amino-1,3-benzothiazol-4-yl)-N1-[(3R,5S)-5-(hydroxymethyl)pyrrolidin-3-yl]-3-(1H-tetrazol-5-yl)benzene-1,2-disulfonamide] | 0.7813 | 1.563 | 0.50 |  | 0.0225 | 3.125 | 3.125 | 1.563 | 0.183 | 0.234 |  |
| Nc1nc2c(-c3ccc(S(=O)(=O)N[C@@H]4CN[C@@H](CO)C4)c(S(N)(=O)=O)c3-c3nnn[nH]3)cccc2s1 [Example 79, 4-(2-amino-1,3-benzothiazol-4-yl)-N1-[(3S,5R)-5-(hydroxymethyl)pyrrolidin-3-yl]-3-(1H-tetrazol-5-yl)benzene-1,2-disulfonamide] | 0.7813 | 1.563 | 0.50 |  | 0.0427 | 1.563 | 3.125 | 1.563 | 0.181 | 0.283 |  |
| Nc1nc2c(-c3ccc(S(=O)(=O)N[C@@H]4CN[C@H](CO)C4)c(S(N)(=O)=O)c3-c3nnn[nH]3)cccc2s1 [Example 80, 4-(2-amino-1,3-benzothiazol-4-yl)-N1-[(3S,5S)-5-(hydroxymethyl)pyrrolidin-3-yl]-3-(1H-tetrazol-5-yl)benzene-1,2-disulfonamide] | 1.563 | 1.563 | 1.00 |  | 0.0488 | 1.563 | 3.125 | 1.563 | 0.158 | 0.336 |  |
| Nc1nc2c(-c3ccc(S(=O)(=O)N[C@H]4CN[C@@H](CO)C4)c(S(N)(=O)=O)c3-c3nnn[nH]3)cccc2s1 [Example 81, 4-(2-amino-1,3-benzothiazol-4-yl)-N1-[(3R,5R)-5-(hydroxymethyl)pyrrolidin-3-yl]-3-(1H-tetrazol-5-yl)benzene-1,2-disulfonamide] | 0.7813 | 1.563 | 0.50 |  | 0.0286 | 1.563 | 1.563 | 1.563 | 0.135 | 0.191 |  |
| Nc1nc2c(-c3ccc(S(=O)(=O)N[C@H]4CN[C@@H](C(=O)O)C4)c(S(N)(=O)=O)c3-c3nnn[nH]3)cccc2s1 [Example 82, (4R)-4-({[4-(2-amino-1,3-benzothiazol-4-yl)-2-sulfamoyl-3-(1H-tetrazol-5-yl)phenyl]sulfonyl}amino)-D-proline] | 3.125 | 6.25 | 0.50 |  | 0.0493 | 6.25 | 12.5 | 12.5 | 0.197 | 0.206 |  |
| Nc1nc2c(-c3ccc(S(=O)(=O)NC4(CO)CCNC4)c(S(N)(=O)=O)c3-c3nnn[nH]3)cccc2s1 (stereo not drawn) [Example 83, 4-(2-amino-1,3-benzothiazol-4-yl)-N1-[3-(hydroxymethyl)pyrrolidin-3-yl]-3-(1H-tetrazol-5-yl)benzene-1,2-disulfonamide] | 0.7813 | 1.563 | 0.50 |  | 0.0483 | 3.125 | 3.125 | 3.125 |  | 0.261 | 0.208 |
| Nc1nc2c(-c3ccc(S(=O)(=O)NC4(CO)CCNC4)c(S(N)(=O)=O)c3-c3nnn[nH]3)cccc2s1 (stereo not drawn) [Example 84, 4-(2-amino-1,3-benzothiazol-4-yl)-N1-[3-(hydroxymethyl)pyrrolidin-3-yl]-3-(1H-tetrazol-5-yl)benzene-1,2-disulfonamide] | 1.563 | 1.563 | 1.00 |  | 0.0619 | 1.563 | 3.125 | 3.125 |  | 0.403 | 0.27 |
| COCCNCCNS(=O)(=O)c1ccc(-c2cccc3sc(N)nc23)c(-c2nnn[nH]2)c1S(N)(=O)=O [Example 85, 4-(2-aminobenzo[d]thiazol-4-yl)-N1-(2-((2-methoxyethyl)amino)ethyl)-3-(1H-tetrazol-5-yl)benzene-1,2-disulfonamide] | 1.563 | 1.563 | 1.00 |  | 0.0351 | 6.25 | 6.25 | 3.125 |  | 0.205 | 0.147 |
| Nc1nc2c(-c3ccc(S(=O)(=O)NCC4(O)CCNCC4)c(S(N)(=O)=O)c3-c3nnn[nH]3)cccc2s1 [Example 86, 4-(2-aminobenzo[d]thiazol-4-yl)-N^1-((4-hydroxypiperidin-4-yl)methyl)-3-(1H-tetrazol-5-yl)benzene-1,2-disulfonamide] | 0.7813 | 1.563 | 0.50 |  | 0.0275 | 1.563 | 6.25 | 1.563 |  | 0.129 | 0.0756 |
